{
  "source": "patent US6638541B1",
  "about": "“Sexual desire and performance enhancement with protein-bound tryptophan” (priority 2002, dated 2003)",
  "origin": "cited, not measured here",
  "key": {"plasma albumin": {"molecular_target": "T1, plasma albumin (Homo sapiens, UniProt P02768)", "T1 construct": "host or cells: blood plasma in vivo (endogenous circulating albumin)", "T1 sequence (P02768 25-609)": "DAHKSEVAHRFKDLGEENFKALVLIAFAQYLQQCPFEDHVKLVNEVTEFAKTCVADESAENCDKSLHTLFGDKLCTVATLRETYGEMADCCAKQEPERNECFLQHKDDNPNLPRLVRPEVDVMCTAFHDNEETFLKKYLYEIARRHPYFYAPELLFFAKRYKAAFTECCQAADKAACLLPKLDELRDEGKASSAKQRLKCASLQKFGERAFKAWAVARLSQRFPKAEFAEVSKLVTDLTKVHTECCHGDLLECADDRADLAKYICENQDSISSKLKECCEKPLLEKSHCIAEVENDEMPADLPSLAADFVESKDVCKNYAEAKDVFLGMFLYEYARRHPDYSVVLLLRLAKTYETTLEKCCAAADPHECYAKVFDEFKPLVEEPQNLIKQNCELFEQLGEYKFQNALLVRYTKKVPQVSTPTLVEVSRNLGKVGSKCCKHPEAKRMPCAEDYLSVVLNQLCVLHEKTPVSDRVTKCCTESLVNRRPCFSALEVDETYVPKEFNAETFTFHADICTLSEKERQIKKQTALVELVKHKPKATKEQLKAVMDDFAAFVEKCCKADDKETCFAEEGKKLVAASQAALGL", "details": "after absorption, circulating in the blood"}, "[1]": {"details": "higher dosages (greater than 12 gm per day); Hartmann, 1977"}},
  "data": [
    {"smiles": "N[C@@H](Cc1c[nH]c2ccccc12)C(=O)O", "note": "[tryptophan]", "values": [
      {"measurement": "dose at which the hypnotic dose-response curve plateaus", "setting": "sleep / sleep latency; fairly flat dose-response curve, Schneider-Helmut and Spinweber, 1986", "result": "approximately 1000 mg"},
      {"measurement": "dose sufficient to produce improved sleep", "setting": "sleep / sleep latency; given alone, people with mild insomnia or longer-than-average sleep latency", "result": 250, "unit": "mg"},
      {"measurement": "fraction circulating as free tryptophan", "setting": "plasma albumin", "result": 20, "unit": "%"},
      {"measurement": "fraction of tryptophan in blood bound to plasma albumin", "setting": "plasma albumin", "result": "approximately 80%"},
      {"measurement": "most frequent complaints", "setting": "[1]", "result": "daytime sedation and nausea"}
    ]}
  ]
}
